Entries after “also recorded” stand apart in the source; their conditions may differ.
Tests used:
H1650 cells = assay: Cell proliferation (Cell Titer Glo): erlotinib sensitivity in H1650 EMT model; type: cell-based, human; details: H1650 cells in vitro, before or after EMT induction
Method: (§1) Measurement of Cell Proliferation: Cell proliferation was determined using the Cell Titer Glo assay (Promega Corporation, Madison, Wis.). Cell lines were seeded at a density of 3000 cells per well in a 96-well plate. For assessment of drug effects on proliferation, 24 hours after plating, cells were dosed with varying concentrations of drug, either as a single agent or in combination. The signal for Cell Titer Glo was determined 72 hours after dosing.
(§2) Ligand-driven EMT models: NCI-H358 cells were cultured in RPMI medium (Gibco #21870) with 10% fetal bovine serum (Sigma), 1 mM sodium pyruvate (Gibco #11360), 2 mM L-glutamine (Gibco #25030) and 10 mM HEPES (Gibco #15630). For ligand treatment, cells were seeded in normal growth medium and stimulated the following day (Day 0) with 100 ng/ml HGF (Peprotech #100-39), 100 ng/ml OSM (R and D systems, 295-OM), 2.5 ng/ml TGFβ1 (EMD Biosciences #616450) or combinations of the three. Medium was changed and fresh ligand was added on day 4 and day 6 after stimulation, such that samples were stimulated with fresh ligand 24 hrs prior to RNA isolation. For analysis containing drug treatments, DMSO or Drug was added to the samples at time of ligand treatments. Samples were taken for RNA Day 1, Day 4 and Day 7. […]

[1] = tested on: advanced, treatment-refractory NSCLC; details: Phase III, monotherapy, patients with advanced; cited from earlier work
H358 cells [2] = assay: Cell proliferation (Cell Titer Glo): erlotinib sensitivity in H358 EMT models; type: cell-based, human; details: ligand- and snai1-induced EMT
Method: as §1, §2

lung tumors = details: adenocarcinoma patients versus squamous cell carcinoma patients; cited from earlier work
H358 cells [3] = assay: 88 gene EMTGS qPCR and EMT characterization, ligand-driven H358 EMT model; type: cell-based, human; details: 7 day ligand stimulation
Method: as §2, with “7. NCI-H1650 and NCI-H292 cells were grown in RPM medium (Gibco #21870) with 10% fetal bovine serum (Sigma), 1 mM sodium pyruvate (Gibco #11360), 2 mM L-glutamine (Gibco #25030) and 10 mM HEPES (Gibco #15630). CFPAC1 cells (ATCC #CRL-1918) were cultured in DMEM (Gibco #11960) supplemented with 10% FBS (Sigma), 2 mM L-glutamine (Gibco #25030). A549 cells were cultured in MEM with 10% fetal bovine serum, 2 mM L-glutamine and 1 mM sodium pyruvate. Cells were treated with ligand for 7 days and harvested as described for NCI-H358 cells in [249] unless otherwise noted.” for “7.”
(§3) Normalization genes used with 88 gene EMTGS for RT-PCR Analysis: The genes GTF2B, GAPDH, SDHA, and ACTB were chosen as normalization genes in qPCR analysis. […] The Delta Ct is then calculated as follows: Delta Ct=(Ct value of Gene X)−(Geometric mean of all normalization genes) For calculation of fold change between a control sample and a treated sample: Control sample=2^(−Delta Ct) Treated sample=2^(−Delta Ct) Fold change=Treated sample/Control sample Values below 1 (ratios) are converted to fold change by multiplying by −(1/X)

A549 cells = assay: 88 gene EMTGS qPCR, A549 cells treated with TNF and TAK1 siRNA; type: cell-based, human; details: relative to untreated cells
Method: as §2, §3

Molecule: C#Cc1cccc(Nc2ncnc3cc(OCCOC)c(OCCOC)cc23)c1 [erlotinib, [6,7-bis(2-methoxyethoxy)-4-quinazolin-4-yl]-(3-ethynylphenyl)amine]
- sensitivity to erlotinib (H1650 cells): not sensitive
- disease progression [1]: delayed disease progression
- survival [1]: significantly prolonged survival
- worsening of lung cancer-related symptoms [1]: delayed worsening
- sensitivity to erlotinib after EMT induction (H358 cells [2]): decreased sensitivity; also recorded: decreases
- clinical response (lung tumors): respond better

Molecule: TGFβ: transforming growth factor β, EMT-inducing ligand
- extent of EMT induced (morphology, biomarker, phenotypic changes) (H358 cells [3]): more advanced EMT

Molecule: TNFa
- effect on epithelial genes of 88 gene EMTGS (A549 cells): downregulation
- effect on mesenchymal genes of 88 gene EMTGS (A549 cells): upregulation

Molecule: HGF: hepatocyte growth factor, EMT-inducing ligand
- extent of EMT induced (morphology, biomarker, phenotypic changes) (H358 cells [3]): partial EMT

B1: OSM: oncostatin M, EMT-inducing ligand (protein, UniProt P13725 26-221, looked up)
Oncostatin-M: AAIGSCSKEYRVLLGQLQKQTDLMQDTSRLLDPYIRIQGLDVPKLREHCRERPGAFPSEETLRGLGRRGFLQTLNATLGCVLHRLADLEQRLPKAQDLERSGLNIEDLEKLQMARPNILGLRNNIYCMAQLLDNSDTAEPTKAGRGASQPPTPTPASDAFQRKLEGCRFLHGYHRFMHSVGRVFSKWGESPNRSRR
- extent of EMT induced (morphology, biomarker, phenotypic changes) (H358 cells [3]): partial EMT
